Legend:
[1] = target: T1, CREBBP (1084-1701) (Homo sapiens, UniProt Q92793); assay: Biochemical assay for CREBBP (1084-1701), SAMDI; conditions: SAMDI, read-out: CREBBP Biochemistry IC50
T1 construct: measured in the following biochemical assay using CREBBP (1084-1701); purchased
Excerpt: The following example describes materials and methods relating to a biochemical assay for CREBBP (1084-1701). IC50 values (micromolar (μM)) are summarized in Table 1, Table 2, and Table 3 under the column labeled: “CREBBP Biochemistry IC50 (micromolar).”
MATERIALS: Reagents 1M Tris pH 8.0, Tween 20 10%, DTT, bovine serum gelatin (BSG) 2%, Peptide #233 (biotin-H3 11-25, K14R, K23R), Acetyl-CoA, CREBBP (1084-1701), formic acid (100%), and sodium bicarbonate were commercially available.
METHODS: The effect of compounds was measured in the following biochemical assay using CREBBP (1084-1701). Enzyme mix 30 μL per well was added using a Multi-drop to wells of prepared Compound Stock plate. The enzyme was incubated in the Compound Stock plate for 30 minutes at room temperature. Substrate mix, 20 μL per well, was added to Compound Stock plate using a Multi-drop. The plate was covered and incubate 30 minutes at room temperature. The reaction was stopped with addition of 5 μL per well of 5% formic acid using a Multi-drop. The plate was Incubated for 30 minutes at room temperature. The reaction mixture was neutralized with addition of 5 μL per well of 10% sodium bicarbonate using a Multi-drop. The plate was Incubated for 35 minutes at room temperature. The reaction mixture was Transferred 2.5 μL per well to a SAMDI biochip. The plate was Incubated for 60 minutes at room temperature. The samples were washed, dried, and matrix applied to SAMDI biochip. The SAMDI biochip was then read on the mass spectrometer.

[2] = tested on: H3K18Ac in HB-CLS-2 cells; assay: H3K18AC in-cell western (ICW) assay; format: cell-based; conditions: H3K18Ac in-cell western, HB-CLS-2 cells; read-out: CREBBP ICW IC50
Excerpt: The following example describes methods and materials relating to an H3K18AC in-cell western assay. IC50 values (micromolar (μM)) are summarized in Table 1, Table 2, and Table 3 under the column labeled: “CREBBP ICW IC50 (micromolar).”
MATERIALS: HB-CLS-2 cell line, DMEM: Ham's F12 medium (1:1 mixture), penicillin-streptomycin, heat inactivated fetal bovine serum, D-PBS, Odyssey blocking buffer, 800CW goat anti-rabbit IgG (H+L) antibody, Licor Odyssey CLx Infrared Scanner, H3K18Ac rabbit monoclonal antibody. DRAQS fluorescent probe solution (5 mM), and 100% methanol were commercially available. HB-CLS-2 adherent cells were maintained in complete growth medium (DMEM: Ham's F12 supplemented with 10% v/v heat inactivated fetal bovine serum) and cultured at 37° C. under 5% CO2.
METHOD: Cell Treatment, ICW for detection of H3K18Ac and DNA content. HB-CLS-2 cells were seeded in assay medium (DMEM: Ham's F12 supplemented with 10% v/v heat inactivated fetal bovine serum and 1% Penicillin/Streptomycin) at a concentration of 80,000 cells per mL in a Poly-D-Lysine coated 384-well culture plates at 50 μL per well. Plates were incubated at room temperature for 30 minutes and then incubated at 37° C., 5% CO2 for additional 16-24 hours. Compounds and DMSO normalization were then added directly to the plates using a D300 Digital Dispenser and returned to the incubator at 37° C., 5% CO2 for 2 hrs. After the incubation, the contents of the plates were discarded into the appropriate waste stream and blotted on laboratory tissue to remove residual liquid. 90 μL per well of 100% ice cold methanol was added to the plates and incubated at room temperature for 15 minutes. Then methanol was then discarded into the appropriate waste stream and the plates again blotted on laboratory tissue to remove residual liquid. Plates were transferred to a Biotek 405 plate washer and washed 3 times with 100 μL per well of wash buffer (1X PBS containing 0.1% Triton X-100 (v/v)). Next, 50 μL per well of Odyssey blocking buffer with 0.1% Tween 20 (v/v) was added to each plate and incubated for 1 hour at room temperature. Blocking buffer was removed and 20 μL of primary antibody were added (α-H3K18Ac diluted 1:800 in Odyssey buffer with 0.1% Tween 20 (v/v)) and plates were incubated overnight (16 hours) at 4° C. Plates were washed 5 times with 100 μL per well of wash buffer. Next 20 μL per well of secondary antibody was added (1:400 800CW goat anti-rabbit IgG (H+L) antibody, 1:2000 DRAQ5 in Odyssey buffer with 0.1% Tween 20 (v/v)) and incubated for 1 hour at room temperature. The plates were washed 3 times with 100 μL per well wash buffer then 3 times with 100 μL per well of water. Plates were allowed to dry at room temperature then imaged on the Licor Odyssey CLx machine which measured integrated intensity at 700 nm and 800 nm wavelengths. Both 700 and 800 channels were scanned.

T1 sequence (Q92793 1084-1701): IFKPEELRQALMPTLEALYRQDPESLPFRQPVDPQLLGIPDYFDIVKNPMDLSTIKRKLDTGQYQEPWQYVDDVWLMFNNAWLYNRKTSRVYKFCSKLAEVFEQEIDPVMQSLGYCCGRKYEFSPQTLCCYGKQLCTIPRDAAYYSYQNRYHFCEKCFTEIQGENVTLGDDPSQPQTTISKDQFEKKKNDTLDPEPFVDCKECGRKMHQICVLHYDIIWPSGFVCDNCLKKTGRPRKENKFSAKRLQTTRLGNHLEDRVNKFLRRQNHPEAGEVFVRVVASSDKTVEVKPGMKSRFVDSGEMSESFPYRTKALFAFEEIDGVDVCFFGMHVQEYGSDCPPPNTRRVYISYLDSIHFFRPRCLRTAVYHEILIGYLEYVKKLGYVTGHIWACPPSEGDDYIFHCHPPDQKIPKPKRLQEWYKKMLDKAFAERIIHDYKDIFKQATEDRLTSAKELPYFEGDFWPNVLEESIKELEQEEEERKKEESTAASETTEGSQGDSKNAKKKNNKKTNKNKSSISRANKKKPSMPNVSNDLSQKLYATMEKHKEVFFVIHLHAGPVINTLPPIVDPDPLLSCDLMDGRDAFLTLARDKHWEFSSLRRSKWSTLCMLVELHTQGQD

SMILES | IC50 [1] [µM] | IC50 [2] [µM]
CCn1ncc(CN(C)C(=O)c2cc(-c3ccccc3Cl)nc3cc(F)ccc23)c1C [Compound 253] | 90 | –
CCn1ncc(CN(C)C(=O)c2cc(-c3cn(C)cn3)nc3cc(Cl)ccc23)c1C [Compound 257] | 120 | –
CCn1ncc(CN(C)C(=O)c2cc(-c3ccccc3Cl)nc3cc(C)ccc23)c1C [Compound 263] | 87 | –
Cc1c(CN(C)C(=O)c2cc(-c3cccc(Cl)c3)nc3ccccc23)cnn1C [Compound 265] | 195 | –
CCn1ncc(CN(C)C(=O)c2cc(-c3ccccc3)nc3ccc(OC)cc23)c1C [Compound 272] | 66 | –
CCn1ncc(CN(C)C(=O)c2nc(-c3ncccn3)nc3ccc(Cl)cc23)c1C [Compound 278] | 132 | –
CCn1ncc(CN(C)C(=O)c2cc(-c3cnn(C)c3)nc3ccc(Cl)cc23)c1C [Compound 289] | 26 | –
CCn1nnc(CN(C)C(=O)c2cc(-c3ccccc3Cl)nc3ccc(Cl)cc23)c1C [Compound 291] | 89 | –
CCn1nnc(CN(C)C(=O)c2nc(-c3ccccc3Cl)nc3ccc(Cl)cc23)c1C [Compound 292] | 50 | –
CCc1n[nH]c(CN(C)C(=O)c2cc(-c3ccccc3Cl)nc3ccc(Cl)cc23)c1C [Compound 298] | 31 | –
Cc1c(CN(C)C(=O)c2cc(-c3cccc(Cl)c3)nc3ccccc23)cnn1C(C)C [Compound 304] | 43 | –
CCn1ncc(CN(C)C(=O)c2nc(-c3ccccc3Cl)nc3ccc(C#N)cc23)c1C [Compound 310] | 48 | –
CCOc1ccc2nc(-c3cccc(Cl)c3)cc(C(=O)N(C)Cc3cnn(CC)c3C)c2c1 [Compound 319] | 120 | –
CCn1ncc(CN(C)C(=O)c2cc(-c3ccc[nH]3)nc3ccc(Cl)cc23)c1C [Compound 320] | 51 | –
CCn1ncc(CN(C)C(=O)c2cc(-c3ccccc3Cl)nc3cc(OC)ccc23)c1C [Compound 322] | 134 | –
CCn1ncc(CN(C)C(=O)c2cc(-c3cccnc3)nc3ccc(Cl)cc23)c1C [Compound 325] | 55 | –
CCn1ncc(CN(C)C(=O)c2cc(-c3ccccn3)nc3ccccc23)c1C [Compound 326] | 40 | –

SMILES | IC50 [1] [µM] | IC50 [2] [µM]
CCn1ncc(CN(C)C(=O)c2nc(-c3ccccn3)nc3cc(Cl)ccc23)c1C [Compound 327] | 152 | –
CCn1ncc(CN(C)C(=O)c2cc(-c3cccc(C#N)c3)nc3ccc(Cl)cc23)c1C [Compound 332] | 27 | –
CCn1ncc(CN(C)C(=O)c2nc(-c3cnn(C)c3)nc3ccc(Cl)cc23)c1C [Compound 339] | 29 | –
CCn1ncc(CN(C)C(=O)c2cc(-c3ccccc3Cl)nc3c(C)cccc23)c1C [Compound 340] | 40 | –
CCn1ncc(CN(C)C(=O)c2cc(-c3ccccc3)nc3ccccc23)c1C [Compound 343] | 176 | –
CCn1ncc(CN(C)C(=O)c2nc(-c3ccccc3Cl)nc3cc(Cl)ccc23)c1C [Compound 344] | 45 | –
CCn1ncc(CN(C)C(=O)c2cc(-c3ncccc3OC)nc3ccc(Cl)cc23)c1C [Compound 345] | 72 | –
CCn1ncc(CN(C)C(=O)c2cc(-c3ccccc3OC)nc3ccccc23)c1C [Compound 351] | 32 | –
CCn1ncc(CN(C)C(=O)c2cc(-c3cccc(Cl)c3)nc3ccccc23)c1C [Compound 352] | 41 | –
CCn1ncc(CN(C)C(=O)c2cc(-c3cccc(C)c3)nc3ccccc23)c1C [Compound 353] | 84 | –
CCn1ncc(CN(C)C(=O)c2cc(-c3cccc(Cl)c3)nc3ccccc23)c1C [Compound 354] | 38 | –
CCn1ncc(CN(C)C(=O)c2cc(-c3cccnc3)nc3ccc(Cl)cc23)c1C [Compound 364] | 34 | –
CN(Cc1cnn2c1CCC2)C(=O)c1cc(-c2cccc(Cl)c2)nc2ccc(Cl)cc12 [Compound 367] | 72 | –
CCc1ccc2c(C(=O)N(C)Cc3cnn(CC)c3C)cc(-c3ccccc3Cl)nc2c1 [Compound 375] | 102 | –
CCn1ncc(CN(C)C(=O)c2cc(-c3ccccc3Cl)nc3ccccc23)c1C [Compound 376] | 32 | –
CCn1ncc(CN(C)C(=O)c2cc(-c3ccccc3F)nc3ccccc23)c1C [Compound 378] | 48 | –
CCn1ncc(CN(C)C(=O)c2cc(-c3ccc(OCCNC(C)=O)c(C)n3)nc3ccc(Cl)cc23)c1C [Compound 431] | – | 0.84

Continued, in another order:

IC50 [1] [µM] | SMILES | IC50 [2] [µM]
1.4 | CCn1ncc(CN(C)C(=O)c2nc(-c3cccc(Cl)c3)nc3ccc(Cl)c(C)c23)c1C [Compound 256] | –
5.4 | CCn1ncc(CN(C)C(=O)c2nc(-c3ccccn3)nc3ccc(Cl)cc23)c1C [Compound 262] | –
26 | CCn1ncc(CN(C)C(=O)c2cc(-c3ccccc3Cl)nc3c(Cl)cccc23)c1C [Compound 269] | –
25 | CCn1ncc(CN(C)C(=O)c2cc(-c3ccccc3Cl)nc3cc(Cl)ccc23)c1C [Compound 270] | –
14 | CN(Cc1cc2n(n1)CCC2)C(=O)c1cc(-c2cccc(Cl)c2)nc2ccc(Cl)cc12 [Compound 271] | –
19 | CCn1ncc(CN(C)C(=O)c2cc(-c3cccc(Cl)c3)nc3ccc(OC)cc23)c1C [Compound 273] | –
0.0032 | CCc1ncc(CN(C)C(=O)c2nc(-c3cccc(Cl)c3Cl)nc3ccc(Cl)cc23)n1C [Compound 274] | –
0.014 | CCn1ncc(CN(C)C(=O)c2nc(-c3cccc(Cl)c3)nc3ccc(C)cc23)c1C [Compound 275] | –
0.27 | CCn1ncc(CN(C)C(=O)c2nc(-c3cccc(C(F)(F)F)c3)nc3ccc(Cl)cc23)c1C [Compound 280] | –
1.8 | CCn1ncc(CN(C)C(=O)c2nc(-c3cccc(Cl)c3)nc3ccc(F)cc23)c1C [Compound 309] | –
18 | CCn1ncc(CN(C)C(=O)c2cc(-c3cccc(Cl)c3)nc3ccc(N)cc23)c1C [Compound 311] | –
0.29 | CCc1ccc2nc(-c3cccc(Cl)c3)cc(C(=O)N(C)Cc3cnn(CC)c3C)c2c1 [Compound 328] | –
3.9 | CCn1ncc(CN(C)C(=O)c2nc(-c3cc(Cl)ccn3)nc3ccc(Cl)cc23)c1C [Compound 333] | –
12 | CCn1ncc(CN(C)C(=O)c2cc(-c3cncc(Cl)c3)nc3ccc(Cl)cc23)c1C [Compound 341] | –
21 | CCn1ncc(CN(C)C(=O)c2nc(-c3ncccc3OC)nc3ccc(Cl)cc23)c1C [Compound 348] | –
3.8 | CCn1ncc(CN(C)C(=O)c2nc(-c3ccc(OCCCN(C)C(=O)OC(C)(C)C)c(OC)c3)nc3ccc(Cl)cc23)c1C [Compound 355] | –
14 | CCn1ncc(CN(C)C(=O)c2cc(-c3ccccc3Cl)nc3c(F)cccc23)c1C [Compound 365] | –
15 | CCn1ncc(CN(C)C(=O)c2cc(-c3cccc(Cl)c3)nc3ccc(F)cc23)c1C [Compound 368] | –
0.67 | CCn1ncc(CN(C)C(=O)c2nc(-c3ccccc3Cl)nc3ccc(C)cc23)c1C [Compound 370] | –
25 | CCn1ncc(CN(C)C(=O)c2cc(-c3ncccn3)nc3ccc(Cl)cc23)c1C [Compound 371] | –

Source: US20220144812A1, “QUINOLINE DERIVATIVES AND THEIR USE FOR THE TREATMENT OF CANCER” (Epizyme, Inc., priority 2019, published 2022)
